Legend:
[1] = biological target: Muscarinic acetylcholine receptor M3 (Rattus norvegicus, UniProt P08483)
[2] = biological target: Delta-type opioid receptor (Rattus norvegicus, UniProt P33533)
[3] = biological target: T1, Adenosine receptor A1 (Rattus norvegicus, UniProt P25099)
T1 sequence (P25099 whole entry): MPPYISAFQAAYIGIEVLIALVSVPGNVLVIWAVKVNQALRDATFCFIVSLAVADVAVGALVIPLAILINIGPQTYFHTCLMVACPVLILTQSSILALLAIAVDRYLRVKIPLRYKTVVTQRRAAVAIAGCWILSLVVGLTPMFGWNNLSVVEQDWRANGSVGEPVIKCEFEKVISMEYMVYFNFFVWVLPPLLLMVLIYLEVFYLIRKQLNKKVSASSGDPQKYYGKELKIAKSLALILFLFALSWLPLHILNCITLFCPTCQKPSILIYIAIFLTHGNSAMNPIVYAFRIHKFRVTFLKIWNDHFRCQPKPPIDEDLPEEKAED

[4] = biological target: Mu-type opioid receptor (Rattus norvegicus, UniProt P33535)
[5] = biological target: Adenosine receptor A2a (Rattus norvegicus, UniProt P30543)
[6] = biological target: D(2) dopamine receptor (Rattus norvegicus, UniProt P61169)
[7] = biological target: T2, Alpha-1A adrenergic receptor (Rattus norvegicus, UniProt P43140)
T2 sequence (P43140 whole entry): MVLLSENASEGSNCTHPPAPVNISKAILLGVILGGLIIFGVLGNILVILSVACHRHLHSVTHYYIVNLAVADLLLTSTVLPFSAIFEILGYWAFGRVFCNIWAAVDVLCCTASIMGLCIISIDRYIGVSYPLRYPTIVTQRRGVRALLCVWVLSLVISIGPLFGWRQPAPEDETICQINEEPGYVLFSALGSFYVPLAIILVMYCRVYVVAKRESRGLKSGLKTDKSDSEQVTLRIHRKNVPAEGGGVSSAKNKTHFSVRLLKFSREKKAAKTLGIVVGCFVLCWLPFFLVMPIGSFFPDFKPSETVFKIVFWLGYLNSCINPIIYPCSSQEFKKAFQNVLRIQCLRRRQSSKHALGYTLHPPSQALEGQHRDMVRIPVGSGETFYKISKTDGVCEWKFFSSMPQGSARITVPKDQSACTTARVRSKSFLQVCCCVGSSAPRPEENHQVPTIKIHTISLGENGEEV

[8] = biological target: D(1A) dopamine receptor (Rattus norvegicus, UniProt P18901)
[9] = biological target: T3, 5-hydroxytryptamine receptor 1A (Rattus norvegicus, UniProt P19327)
T3 sequence (P19327 whole entry): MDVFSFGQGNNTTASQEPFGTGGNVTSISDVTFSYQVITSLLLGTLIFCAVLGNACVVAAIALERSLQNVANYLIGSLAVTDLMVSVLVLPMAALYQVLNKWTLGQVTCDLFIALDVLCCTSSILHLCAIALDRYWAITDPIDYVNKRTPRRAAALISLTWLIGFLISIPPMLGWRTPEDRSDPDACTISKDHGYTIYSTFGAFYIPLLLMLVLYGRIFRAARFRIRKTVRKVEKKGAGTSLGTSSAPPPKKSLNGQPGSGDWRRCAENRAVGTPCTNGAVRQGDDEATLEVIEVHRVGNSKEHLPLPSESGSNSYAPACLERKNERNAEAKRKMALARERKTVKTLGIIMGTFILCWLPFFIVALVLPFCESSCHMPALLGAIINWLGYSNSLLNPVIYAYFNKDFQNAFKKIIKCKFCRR

[10] = biological target: T4, Gastrin/cholecystokinin type B receptor (Rattus norvegicus, UniProt P30553)
T4 sequence (P30553 whole entry): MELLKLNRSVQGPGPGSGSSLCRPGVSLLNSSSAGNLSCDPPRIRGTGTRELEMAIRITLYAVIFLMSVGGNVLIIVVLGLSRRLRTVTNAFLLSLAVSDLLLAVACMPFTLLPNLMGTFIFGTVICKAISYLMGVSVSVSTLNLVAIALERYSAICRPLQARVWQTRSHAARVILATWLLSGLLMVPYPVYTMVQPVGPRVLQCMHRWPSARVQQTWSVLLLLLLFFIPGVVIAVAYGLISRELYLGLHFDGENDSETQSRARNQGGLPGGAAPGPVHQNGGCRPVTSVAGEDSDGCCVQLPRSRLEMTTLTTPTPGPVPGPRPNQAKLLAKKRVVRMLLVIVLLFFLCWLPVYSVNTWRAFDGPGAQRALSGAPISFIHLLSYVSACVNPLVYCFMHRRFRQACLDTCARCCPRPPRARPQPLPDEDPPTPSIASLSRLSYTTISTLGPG

[11] = biological target: Histamine H1 receptor (Rattus norvegicus, UniProt P31390)
[12] = biological target: Substance-P receptor (Rattus norvegicus) (UniProt P14600)
[13] = biological target: T5, Alpha-2C adrenergic receptor (Rattus norvegicus, UniProt P22086)
T5 sequence (P22086 whole entry): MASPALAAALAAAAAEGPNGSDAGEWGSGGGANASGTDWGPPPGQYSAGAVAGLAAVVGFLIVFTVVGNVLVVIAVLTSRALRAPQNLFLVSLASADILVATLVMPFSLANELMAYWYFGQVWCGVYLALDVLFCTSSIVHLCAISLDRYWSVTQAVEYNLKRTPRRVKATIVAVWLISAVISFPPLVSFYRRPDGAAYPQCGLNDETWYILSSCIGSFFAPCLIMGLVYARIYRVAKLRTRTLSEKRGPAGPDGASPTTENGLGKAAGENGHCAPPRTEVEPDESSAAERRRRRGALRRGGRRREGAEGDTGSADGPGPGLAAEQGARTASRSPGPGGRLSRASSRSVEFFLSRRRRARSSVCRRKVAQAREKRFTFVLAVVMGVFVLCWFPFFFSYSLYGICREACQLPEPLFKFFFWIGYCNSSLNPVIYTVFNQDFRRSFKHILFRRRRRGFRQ

Muscarinic acetylcholine receptor M3, sequence (P08483 whole entry): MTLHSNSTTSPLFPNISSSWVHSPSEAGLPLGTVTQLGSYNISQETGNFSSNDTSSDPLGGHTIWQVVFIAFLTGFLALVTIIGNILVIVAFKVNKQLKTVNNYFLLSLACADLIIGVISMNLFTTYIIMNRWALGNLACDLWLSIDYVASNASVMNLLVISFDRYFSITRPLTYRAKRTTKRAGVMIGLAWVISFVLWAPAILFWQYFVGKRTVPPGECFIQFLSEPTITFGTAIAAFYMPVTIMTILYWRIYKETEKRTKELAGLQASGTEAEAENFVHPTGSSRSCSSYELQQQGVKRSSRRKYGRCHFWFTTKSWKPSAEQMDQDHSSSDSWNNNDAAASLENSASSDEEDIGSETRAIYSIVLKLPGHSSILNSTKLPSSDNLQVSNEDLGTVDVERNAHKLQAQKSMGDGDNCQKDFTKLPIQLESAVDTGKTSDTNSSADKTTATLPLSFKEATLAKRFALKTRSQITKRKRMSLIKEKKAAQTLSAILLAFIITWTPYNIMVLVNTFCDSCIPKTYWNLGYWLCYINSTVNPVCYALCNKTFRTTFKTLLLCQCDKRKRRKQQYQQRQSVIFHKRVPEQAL
Mu-type opioid receptor, sequence (P33535 whole entry): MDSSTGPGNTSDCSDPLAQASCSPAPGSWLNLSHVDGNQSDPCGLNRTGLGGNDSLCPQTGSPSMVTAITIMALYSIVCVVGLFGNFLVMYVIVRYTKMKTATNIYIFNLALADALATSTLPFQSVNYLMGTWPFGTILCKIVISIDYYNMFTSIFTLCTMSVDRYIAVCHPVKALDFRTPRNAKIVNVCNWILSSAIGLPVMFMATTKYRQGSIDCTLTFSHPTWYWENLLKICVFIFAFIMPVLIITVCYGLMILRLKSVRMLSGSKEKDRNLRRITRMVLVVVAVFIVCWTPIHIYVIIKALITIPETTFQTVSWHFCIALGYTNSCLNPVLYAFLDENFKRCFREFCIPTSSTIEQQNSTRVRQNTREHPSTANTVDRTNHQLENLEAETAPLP
Substance-P receptor (Rattus norvegicus), sequence (P14600 whole entry, looked up): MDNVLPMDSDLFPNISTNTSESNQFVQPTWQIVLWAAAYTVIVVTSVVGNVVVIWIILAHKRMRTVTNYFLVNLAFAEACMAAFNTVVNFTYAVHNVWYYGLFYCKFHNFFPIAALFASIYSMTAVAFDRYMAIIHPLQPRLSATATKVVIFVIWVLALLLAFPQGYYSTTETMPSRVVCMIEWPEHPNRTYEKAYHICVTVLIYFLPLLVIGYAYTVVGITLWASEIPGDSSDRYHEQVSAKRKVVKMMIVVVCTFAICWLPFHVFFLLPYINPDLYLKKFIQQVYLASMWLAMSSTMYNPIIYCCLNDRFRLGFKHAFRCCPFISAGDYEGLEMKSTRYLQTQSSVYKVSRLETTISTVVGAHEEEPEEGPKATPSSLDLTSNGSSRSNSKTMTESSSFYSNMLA
D(2) dopamine receptor, sequence (P61169 whole entry): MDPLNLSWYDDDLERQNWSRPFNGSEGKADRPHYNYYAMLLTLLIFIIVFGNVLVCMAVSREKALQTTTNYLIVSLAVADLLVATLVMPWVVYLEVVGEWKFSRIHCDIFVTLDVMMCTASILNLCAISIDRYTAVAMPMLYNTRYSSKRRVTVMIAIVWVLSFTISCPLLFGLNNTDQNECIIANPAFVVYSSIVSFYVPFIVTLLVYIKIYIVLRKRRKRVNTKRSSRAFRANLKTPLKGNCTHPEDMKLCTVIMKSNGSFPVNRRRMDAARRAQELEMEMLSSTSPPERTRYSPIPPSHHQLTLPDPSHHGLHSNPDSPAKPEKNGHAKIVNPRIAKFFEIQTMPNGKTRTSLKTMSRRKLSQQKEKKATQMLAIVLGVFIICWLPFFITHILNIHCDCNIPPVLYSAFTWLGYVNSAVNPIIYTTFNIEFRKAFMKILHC
Delta-type opioid receptor, sequence (P33533 whole entry): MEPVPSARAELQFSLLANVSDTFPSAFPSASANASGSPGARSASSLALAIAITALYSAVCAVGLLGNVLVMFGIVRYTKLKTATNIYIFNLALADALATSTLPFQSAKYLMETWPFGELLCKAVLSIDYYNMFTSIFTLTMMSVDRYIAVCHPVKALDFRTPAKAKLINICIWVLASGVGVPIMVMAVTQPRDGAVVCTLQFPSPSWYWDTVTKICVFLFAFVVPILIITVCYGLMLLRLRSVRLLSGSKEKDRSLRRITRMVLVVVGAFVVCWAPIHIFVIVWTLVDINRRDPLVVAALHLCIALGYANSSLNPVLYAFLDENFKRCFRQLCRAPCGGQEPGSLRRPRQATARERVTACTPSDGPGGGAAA
Histamine H1 receptor, sequence (P31390 whole entry): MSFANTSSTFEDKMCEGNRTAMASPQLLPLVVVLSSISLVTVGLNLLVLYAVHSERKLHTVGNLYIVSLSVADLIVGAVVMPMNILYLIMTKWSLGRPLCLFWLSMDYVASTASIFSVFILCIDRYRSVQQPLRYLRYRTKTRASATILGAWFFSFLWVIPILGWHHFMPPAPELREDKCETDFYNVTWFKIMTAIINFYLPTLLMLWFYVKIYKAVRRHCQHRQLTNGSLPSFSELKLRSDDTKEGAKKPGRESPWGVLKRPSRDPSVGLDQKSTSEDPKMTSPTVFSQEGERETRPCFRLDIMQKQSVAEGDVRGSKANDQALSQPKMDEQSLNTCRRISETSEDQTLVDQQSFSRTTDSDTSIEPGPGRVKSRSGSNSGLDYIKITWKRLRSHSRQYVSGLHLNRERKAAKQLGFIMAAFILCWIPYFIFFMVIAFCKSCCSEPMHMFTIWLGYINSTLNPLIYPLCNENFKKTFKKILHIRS
D(1A) dopamine receptor, sequence (P18901 whole entry): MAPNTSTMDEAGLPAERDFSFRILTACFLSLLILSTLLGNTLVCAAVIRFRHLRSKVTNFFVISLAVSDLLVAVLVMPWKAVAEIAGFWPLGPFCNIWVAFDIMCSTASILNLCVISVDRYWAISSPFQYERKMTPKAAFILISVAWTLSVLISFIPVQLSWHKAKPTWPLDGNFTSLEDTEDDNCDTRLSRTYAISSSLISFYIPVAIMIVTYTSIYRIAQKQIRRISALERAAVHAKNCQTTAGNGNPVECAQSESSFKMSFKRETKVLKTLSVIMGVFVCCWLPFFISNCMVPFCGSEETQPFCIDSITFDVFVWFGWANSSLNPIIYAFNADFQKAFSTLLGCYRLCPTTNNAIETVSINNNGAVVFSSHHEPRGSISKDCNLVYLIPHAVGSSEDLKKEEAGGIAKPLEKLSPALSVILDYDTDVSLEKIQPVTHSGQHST
Adenosine receptor A2a, sequence (P30543 whole entry): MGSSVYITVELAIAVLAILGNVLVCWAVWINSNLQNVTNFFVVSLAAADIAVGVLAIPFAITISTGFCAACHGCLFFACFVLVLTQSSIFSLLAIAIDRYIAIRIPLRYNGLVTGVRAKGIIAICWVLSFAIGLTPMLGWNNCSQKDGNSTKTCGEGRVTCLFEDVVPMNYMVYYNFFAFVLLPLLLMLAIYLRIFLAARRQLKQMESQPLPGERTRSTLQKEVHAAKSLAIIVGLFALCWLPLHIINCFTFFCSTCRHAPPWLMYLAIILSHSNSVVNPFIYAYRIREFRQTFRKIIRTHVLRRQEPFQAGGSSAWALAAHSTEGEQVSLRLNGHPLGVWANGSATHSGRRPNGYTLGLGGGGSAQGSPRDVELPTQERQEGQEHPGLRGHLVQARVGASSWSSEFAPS

SMILES	Ki [1]	Ki [2]	Ki [3]	Ki [4]	Ki [5]	Ki [6]	Ki [7]	Ki [8]	Ki [9]	Ki [10]	Ki [11]	Ki [12]	Ki [13]
N=C(N)NC(=O)c1nc(Cl)c(N2CCCCCC2)nc1N	4.7 µM	1 µM	1.2 µM	0.061 µM	4.6 µM	> 10 µM	> 10 µM	> 10 µM	> 10 µM	> 10 µM	5.6 µM	> 10 µM	5.2 µM
NC(=NCc1ccccc1)NC(=O)c1nc(Cl)c(N)nc1N [NSC_108107]	2.8 µM	> 10 µM	0.98 µM	1.1 µM	6.4 µM	7.6 µM	2 µM	> 10 µM	1.9 µM	> 10 µM	3.2 µM	> 10 µM	2.2 µM
N=C(N)NC(=O)c1nc(Cl)c(N)nc1N [3,5-diamino-N-carbamimidoyl-6-chloropyrazine-2-carboxamide]	> 10 µM	> 10 µM	11 µM	> 10 µM	17 µM	> 10 µM	> 10 µM	> 10 µM	> 10 µM	> 10 µM	> 10 µM	> 10 µM	> 10 µM
